Test results published in US20110034526A1, “Benzimidazole Compounds” (Wyeth LLC, priority 2007, published 2011).
Like-named read-outs stand apart in the source and are kept apart here.

Experiments:
ABCA1 gene = experiment: Quantitative analysis of ABCA1 gene regulation in THP-1 cells (real-time PCR); type: cell-based, human; settings: read-out: EC50 ABCA1
Method: The compounds of formula (I) effect on the regulation of the ABCA1 gene was evaluated using the following procedure.
The THP-1 monocytic cell line (ATCC # TIB-202) was obtained from American Type Culture Collection (Manassas, Va.) and cultured in RPMI 1640 medium (Gibco, Carlsbad, Calif.) containing 10% FBS, 2 mM L-glutamine, and 55 uM beta-Mercaptoethanol (BME). […] Differentiated THP-1 cells were treated with test compounds or ligands dissolved in DMSO (Sigma, D-8779) in culture medium lacking phorbal ester. […] Unstimulated cells treated with vehicle were included as negative controls on each plate. An LXR agonist reference, N-(2,2,2-trifluoro-ethyl)-N-[4-(2,2,2-trifluoro-1-hydroxy-1-trifluoromethyl-ethyl)-phenyl]-benzenesulfonamide (Schultz, Joshua R., Genes & Development (2000), 14(22), 2831-2838), was dosed at 1.0 uM and served as a positive control. […] Results of antagonist analysis are expressed as % antagonism and IC50 (in μM).
Total cellular RNA was isolated from treated cells cultured in 96-well plates using PrepStation 6100 (Applied Biosystems, Foster City, Calif.), according to the manufacturer's recommendations. RNA was resuspended in ribonuclease-free water and stored at −70° C. prior to analysis. RNA concentrations were quantitated with RiboGreen test procedure, #R-11490 (Molecular Probes, Eugene, Oreg.).
Gene-specific mRNA quantitation was performed by real-time PCR with the Perkin Elmer Corp. chemistry on an ABI Prism 7700 Sequence detection system (Applied Biosystems, Foster City, Calif.) according to the manufacturer's instructions. Samples (50-100 ng) of total RNA were assayed in duplicate or triplicate in 50 μl reactions using one-step RT-PCR and the standard curve method to estimate specific mRNA concentrations. Sequences of gene-specific primer and probe sets were designed with Primer Express Software (Applied Biosystems, Foster City, Calif.). […] RT and PCR reactions were performed according to PE Applied Biosystem's protocol for Taqman Gold RT-PCR or Qiagen's protocol for Quantitect probe RT-PCR. Relative levels of ABCA1 mRNA are normalized using GAPDH mRNA or 18S rRNA probe/primer sets purchased commercially (Applied Biosystems, Foster City, Calif.).
Mean, standard deviation and statistical significance of duplicate evaluations of RNA samples were assessed using ANOVA, one-way analysis of variance using SAS analysis.

human LXRα = target: T1, human LXRα (Homo sapiens, UniProt Q13133); experiment: Ligand-binding test procedure for human LXRα (3H T0901317 tracer, flash plates); settings: biotinylated hLXRα, tracer 3H T0901317
T1 construct: biotin (biotinylated); made in house; host or cells: E. coli (crude extract)
T1 sequence (Q13133 1-447): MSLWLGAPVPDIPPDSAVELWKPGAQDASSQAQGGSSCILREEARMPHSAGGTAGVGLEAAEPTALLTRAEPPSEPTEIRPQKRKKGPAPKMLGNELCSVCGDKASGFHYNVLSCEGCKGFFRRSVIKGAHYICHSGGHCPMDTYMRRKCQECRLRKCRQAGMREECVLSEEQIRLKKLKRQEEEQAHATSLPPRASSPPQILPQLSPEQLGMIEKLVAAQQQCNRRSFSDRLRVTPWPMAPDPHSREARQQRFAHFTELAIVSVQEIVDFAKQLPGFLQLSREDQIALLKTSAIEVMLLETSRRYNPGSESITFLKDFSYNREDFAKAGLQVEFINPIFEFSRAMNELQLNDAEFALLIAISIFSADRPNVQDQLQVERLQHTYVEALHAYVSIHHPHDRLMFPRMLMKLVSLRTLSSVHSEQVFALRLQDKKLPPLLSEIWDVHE
Method: Receptor source: E. coli extract from cells expressing biotinylated hLXRcc. Extract was made in a similar buffer as above, but with 50 mM TRIS.
Washed streptavidin and coated flash plates with wash buffer. Diluted receptor extract to give Bmax ˜4000 cpm and add to the wells. Wrapped the plates in aluminum foil and stored them at +4° C. over night.
(§1) Made a dilution series in DMSO of the test ligands. Made a 5 nM solution of the radioactive tracer in buffer. Mixed 250 μl diluted tracer with 5 μl of the test ligand from each concentration of the dilution series. Washed the receptor-coated flash plates. Added 200 μl per well of the ligand/radiolabel mixture to the receptor-coated flash plates. Wrapped the plates in aluminum foil and incubate at +4° C. over night.
Aspirated wells, and wash the flashed plates. Sealed the plate. Measured the remaining radioactivity in the plate.

human LXRβ = target: T2, human LXRβ (Homo sapiens, UniProt P55055); experiment: Ligand-binding test procedure for human LXRβ (3H T0901317 tracer, flash plates)
T2 construct: biotin (biotinylated); made in house; host or cells: E. coli (crude extract)
T2 sequence (P55055 1-460): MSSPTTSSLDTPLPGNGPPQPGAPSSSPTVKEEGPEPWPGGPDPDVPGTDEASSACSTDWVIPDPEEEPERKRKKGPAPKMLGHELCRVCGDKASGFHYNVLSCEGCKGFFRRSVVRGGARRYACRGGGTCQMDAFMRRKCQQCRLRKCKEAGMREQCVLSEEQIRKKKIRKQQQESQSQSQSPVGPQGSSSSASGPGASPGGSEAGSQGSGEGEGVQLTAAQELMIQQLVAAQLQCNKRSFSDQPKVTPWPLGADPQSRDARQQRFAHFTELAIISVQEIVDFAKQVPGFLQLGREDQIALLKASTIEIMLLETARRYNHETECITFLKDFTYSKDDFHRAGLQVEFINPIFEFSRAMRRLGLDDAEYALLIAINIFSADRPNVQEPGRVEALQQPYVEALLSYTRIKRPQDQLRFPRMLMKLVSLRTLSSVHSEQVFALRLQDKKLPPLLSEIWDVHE
Method: Receptor source: E. coli extracted from cells expressing biotinylated hLXRβ. Extract was made in a similar buffer as above, but with 50 mM TRIS.
Washed streptavidin and coated flash plates with wash buffer. Diluted receptor extract to give Bmax ˜4000 cpm and add to the wells. Wrapped the plates in aluminum foil and stored them at +4° C. overnight.
as §1
Aspirated wells, and washed the flashed plates. Sealed the plate. Measured the remaining radioactivity in the plate.

[1] = Gene regulation by LXR (Human), differentiated THP-1 cells, 18 hrs, ABCA1 mRNA

Row | SMILES | EC50 (ABCA1 gene; [1]) [µM] | IC50 (human LXRα) [µM] | IC50 (human LXRβ) [µM] | EC50 (ABCA1 gene; Homo sapiens, THP-1, 18 h) [µM]
1 | Cc1nc2c(C(F)(F)F)cccc2n1-c1cccc(Oc2cccc(S(=O)(=O)CCCO)c2)c1 [Example 9, 3-[(3-{3-[2-methyl-4-(trifluoromethyl)-1H-benzimidazol-1-yl]phenoxy}-phenyl)sulfonyl]propan-1-ol] | 0.61 | – | – | –
2 | CCCS(=O)(=O)c1cccc(Oc2cccc(-n3c(C)nc4c(C(F)(F)F)cccc43)c2)c1 [Example 10, 2-methyl-1-{3-[3-(propylsulfonyl)phenoxy]phenyl}-4-(trifluoromethyl)-1H-benzimidazole] | 0.62 | – | – | –
3 | CS(=O)(=O)c1cccc(Oc2cccc(-n3cnc4c(C(F)(F)F)cccc43)c2)c1 [Example 25, 1-{3-[3-(methylsulfonyl)phenoxy]phenyl}-4-(trifluoromethyl)-1H-benzimidazole] | 0.907 | – | – | –
4 | CCc1nc2c(C(F)(F)F)cccc2n1-c1cccc(Oc2cccc(S(C)(=O)=O)c2)c1 [Example 26, 2-ethyl-1-{3-[3-(methylsulfonyl)phenoxy]phenyl}-4-(trifluoromethyl)-1H-benzimidazole] | 0.14 | – | – | –
5 | CCCc1nc2c(C(F)(F)F)cccc2n1-c1cccc(Oc2cccc(S(C)(=O)=O)c2)c1 [Example 27, 1-{3-[3-(methylsulfonyl)phenoxy]phenyl}-2-propyl-4-(trifluoromethyl)-1H-benzimidazole] | 0.022 | 0.0039 | 0.0009 | –
6 | CS(=O)(=O)c1cccc(Oc2cccc(-n3c(-c4ccccc4)nc4c(C(F)(F)F)cccc43)c2)c1 [Example 30, 1-{3-[3-(methylsulfonyl)phenoxy]phenyl}-2-phenyl-4-(trifluoromethyl)-1H-benzimidazole] | 0.16 | – | – | –
7 | CS(=O)(=O)c1cccc(Oc2cccc(-n3c(C4CC4)nc4c(C(F)(F)F)cccc43)c2)c1 [Example 31, 2-cyclopropyl-1-{3-[3-(methylsulfonyl)phenoxy]phenyl}-4-(trifluoromethyl)-1H-benzimidazole] | 0.76 | – | – | –
8 | CS(=O)(=O)c1cccc(Oc2cccc(-n3c(C(F)F)nc4c(C(F)(F)F)cccc43)c2)c1 [Example 33, 2-(difluoromethyl)-1-{3-[3-(methylsulfonyl)phenoxy]phenyl}-4-(trifluoromethyl)-1H-benzimidazole] | 0.19 | 0.036 | 0.002 | –
9 | Cc1nc2c(C(F)(F)F)cccc2n1-c1cccc(Oc2cccc(S(=O)(=O)CCCN)c2)c1 [Example 37, 3-[(3-{3-[2-methyl-4-(trifluoromethyl)-1H-benzimidazol-1-yl]phenoxy}phenyl)sulfonyl]propan-1-amine] | 4.7 | 1.47 | 0.041 | –
10 | Cc1nc2c(C(F)(F)F)cccc2n1-c1cccc(Oc2cccc(S(=O)(=O)C3CC3)c2)c1 [Example 38, 1-{3-[3-(cyclopropylsulfonyl)phenoxy]phenyl}-2-methyl-4-(trifluoromethyl)-1H-benzimidazole] | 0.65 | 0.141 | 0.0058 | –
11 | Cc1nc2c(Cl)cccc2n1-c1cccc(Oc2cccc(S(C)(=O)=O)c2)c1 [Example 40, 4-chloro-2-methyl-1-{3-[3-(methylsulfonyl)phenoxy]phenyl}-1H-benzimidazole] | 0.315 | – | – | –
12 | CCS(=O)(=O)c1cccc(Oc2cccc(-n3c(C)nc4c(Cl)cccc43)c2)c1 [Example 41, 4-chloro-1-{3-[3-(ethylsulfonyl)phenoxy]phenyl}-2-methyl-1H-benzimidazole] | 0.745 | – | – | –
13 | Cc1nc2c(Cl)cccc2n1-c1cccc(Oc2cccc(S(=O)(=O)C(F)(F)F)c2)c1 [Example 47, 4-chloro-2-methyl-1-(3-{3-[(trifluoromethyl)sulfonyl]phenoxy}phenyl)-1H-benzimidazole] | 0.215 | – | – | –
14 | Cc1nc2c(Cl)cccc2n1-c1cccc(Oc2ccc(S(C)(=O)=O)cc2)c1 [Example 48, 4-chloro-2-methyl-1-{3-[4-(methylsulfonyl)phenoxy]phenyl}-1H-benzimidazole] | – | 0.064 | 0.006 | 1.12
15 | CCS(=O)(=O)c1cccc(Oc2ccc(-n3c(C)nc4c(C(F)(F)F)cccc43)cc2)c1 [Example 65, 1-{4-[3-(ethylsulfonyl)phenoxy]phenyl}-2-methyl-4-(trifluoromethyl)-1H-benzimidazole] | 0.355 | 0.0072 | 0.0013 | –
16 | Cc1nc2c(C(F)(F)F)cccc2n1-c1ccc(Oc2cc(F)cc(S(C)(=O)=O)c2)cc1 [Example 66, 1-{4-[3-fluoro-5-(methylsulfonyl)phenoxy]phenyl}-2-methyl-4-(trifluoromethyl)-1H-benzimidazole] | 0.355 | 0.261 | 0.051 | –
17 | CCc1nc2c(C(F)(F)F)cccc2n1-c1ccc(Oc2cccc(S(C)(=O)=O)c2)cc1 [Example 67, 2 ethyl-1-{4-[3-(methylsulfonyl)phenoxy]phenyl}-4-(trifluoromethyl)-1H-benzimidazole] | 0.846 | 0.197 | 0.099 | –
18 | CCc1nc2c(C(F)(F)F)cccc2n1-c1ccc(Oc2cc(F)cc(S(C)(=O)=O)c2)cc1 [Example 69, 2-ethyl-1-{4-[3-fluoro-5-(methylsulfonyl)phenoxy]-phenyl}-4-(trifluoromethyl)-1H-benzimidazole] | 0.245 | 0.28 | 0.02 | –
19 | CCS(=O)(=O)c1cccc(Oc2ccc(-n3c(C(F)(F)F)nc4c(C(F)(F)F)cccc43)cc2)c1 [Example 71, 1-{4-[3-(ethylsulfonyl)phenoxy]phenyl}-2,4-bis(trifluoromethyl)-1H-benzimidazole] | – | 1.1 | 0.083 | 0.29
20 | CC(C)S(=O)(=O)c1cccc(Oc2ccc(-n3c(C(F)(F)F)nc4c(C(F)(F)F)cccc43)cc2)c1 [Example 73, 1-{4-[3-(isopropylsulfonyl)phenoxy]phenyl}-2,4-bis(trifluoromethyl)-1H-benzimidazole] | 0.47 | 0.8 | 0.047 | –
21 | COc1ccc(-n2c(C(F)(F)c3ccccc3)nc3c(C(F)(F)F)cccc32)cc1 [Example 74, 2-[difluoro(phenyl)methyl]-1-(4-methoxyphenyl)-4-(trifluoromethyl)-1H-benzimidazole] | 0.44 | 0.635 | 0.032 | –
